Data from US9958434B2, “Fluorescent probe sensing tyrosine kinase and use thereof” (POSTECH ACADEMY-INDUSTRY FOUNDATION, priority 2013, dated 2018).

How the values were obtained:
CT-26 cancer cells = assay: Emission wavelengths of fluorescence in cancer cells using an optical fiber; assay type: cell-based, mouse; details: CT-26 cells treated with compound 1 as in Example 12
Protocol: More particularly, CT-26 cancer cells were treated with compound 1 in the same manner as performed in Example 12, and emission wavelengths of fluorescence were then determined using an optical fiber. The optical fiber was connected to a spectrofluorometer (FL1039, HORIBA), and ranges of excitation wavelengths and emission wavelengths are substantially the same as in Example 12. Then, the emission wavelengths of fluorescence were determined.

[1] = test system: B16F10, CT26, SNU-475, A431, SKBR3, HeLa, U87MG cancer cells; assay: Fluorescence turn-on in cancer cells, single-photon and two-photon fluorescence microscopy; assay type: cell-based, mouse, human; details: 50 μM, one hour; single-photon ex 405 nm, two-photon ex 880 nm, em 500 to 550 nm
Protocol: More particularly, a total of seven kinds of cancer cells, for example, (a) B16F10 mouse skin cancer cells, (b) CT26 mouse colon cancer cells, (c) SNU-475 human liver cancer cells, (d) A431 human epidermoid carcinoma cells, (e) SKBR3 human breast cancer cells, (f) HeLa human uterine cancer cells, and (g) U87MG human brain tumor cells, were treated with compound 1, and fluorescence images of the cancer cells were observed under a single-photon (confocal) fluorescence microscope (FV1000 model, Olympus) and a two-photon fluorescence microscope (Chameleon Ultra, Coherent, home-built version). Each of the cancer cells were incubated in a minimum essential medium with Earle's balanced salts (MEM/EBSS), a Dulbecco's modified Eagle medium (DMEM), a Roswell Park Memorial Institute (RPMI) medium, a fetal bovine serum (FBS), a penicillin-streptomycin (PS) medium, phosphate buffered saline (PBS), and a trypsin-EDTA culture broth, all of which were commercially available from Hyclone. In this case, the incubation was performed at 37° C. […] When the preparation was completed, a fluorescence image was obtained using a fluorescence microscope.
In FIG. 11, the top panel represents a bright field image, the middle panel represents a single-photon fluorescence microscope image of the cells, and the bottom panel represents a two-photon fluorescence microscope image of the cells.

RSK2 = molecular target: T1, RSK2 (Homo sapiens, UniProt P51812); assay: KINOMEscan competition binding (DiscoveRX); details: lower value means stronger binding
T1 construct: purchased DiscoveRX (contract KINOMEscan service)
T1 sequence (P51812 whole entry): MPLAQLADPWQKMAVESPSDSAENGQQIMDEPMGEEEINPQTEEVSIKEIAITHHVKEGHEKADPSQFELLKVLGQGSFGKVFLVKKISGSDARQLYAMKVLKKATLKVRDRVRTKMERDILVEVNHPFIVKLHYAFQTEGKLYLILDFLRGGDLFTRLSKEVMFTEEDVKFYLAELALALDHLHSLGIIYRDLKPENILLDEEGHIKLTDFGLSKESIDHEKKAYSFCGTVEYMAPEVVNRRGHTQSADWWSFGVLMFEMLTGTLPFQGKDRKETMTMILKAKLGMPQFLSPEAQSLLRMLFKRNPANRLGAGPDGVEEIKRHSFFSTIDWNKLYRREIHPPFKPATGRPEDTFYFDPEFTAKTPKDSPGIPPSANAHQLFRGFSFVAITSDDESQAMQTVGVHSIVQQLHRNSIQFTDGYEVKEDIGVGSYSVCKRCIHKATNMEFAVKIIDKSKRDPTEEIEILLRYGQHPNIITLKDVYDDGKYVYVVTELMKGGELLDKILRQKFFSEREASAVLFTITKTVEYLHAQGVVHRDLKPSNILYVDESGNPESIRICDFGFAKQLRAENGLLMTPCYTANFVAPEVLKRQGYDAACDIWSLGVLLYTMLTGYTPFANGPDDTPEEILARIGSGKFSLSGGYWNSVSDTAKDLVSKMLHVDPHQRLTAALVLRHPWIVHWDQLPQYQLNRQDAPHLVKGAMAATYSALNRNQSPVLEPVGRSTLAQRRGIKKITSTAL
Source text: (§1) More particularly, to determine selectivities to various kinds of kinase enzymes, the samples were entrusted to DiscoveRX (U.S.A), which was able to determine the binding affinities to a total of 96 kinase enzymes, to perform KINOMEscan experiments. This company treated all kinds of information on the entrusted samples as confidential, and analyzed the sample with charge. Compound 1 was provided to the company, and the company performed the KINOMEscan experiments, and provided the results (DiscoveRX corp.)
(§2) KINOMEscan is an experiment in which compound 1 and a compound (a material strongly binding to kinase enzymes) competing for compound 1 are treated with a kinase enzyme at the same time to determine how many the competing compound binds to active sites of the kinase enzymes, compared with compound 1. In this experiment, an experimental value is expressed as a percentile value. In this case, a lower percentile value means that compound 1 more strongly bind to the kinase enzymes.

96 kinase enzymes = assay: KINOMEscan competition binding (DiscoveRX)
Source text: as §1, §2

TYK2 = molecular target: T2, TYK2 (Homo sapiens, UniProt P29597); assay: KINOMEscan competition binding (DiscoveRX); details: lower value means stronger binding
T2 construct: purchased DiscoveRX (contract KINOMEscan service)
T2 sequence (P29597 whole entry): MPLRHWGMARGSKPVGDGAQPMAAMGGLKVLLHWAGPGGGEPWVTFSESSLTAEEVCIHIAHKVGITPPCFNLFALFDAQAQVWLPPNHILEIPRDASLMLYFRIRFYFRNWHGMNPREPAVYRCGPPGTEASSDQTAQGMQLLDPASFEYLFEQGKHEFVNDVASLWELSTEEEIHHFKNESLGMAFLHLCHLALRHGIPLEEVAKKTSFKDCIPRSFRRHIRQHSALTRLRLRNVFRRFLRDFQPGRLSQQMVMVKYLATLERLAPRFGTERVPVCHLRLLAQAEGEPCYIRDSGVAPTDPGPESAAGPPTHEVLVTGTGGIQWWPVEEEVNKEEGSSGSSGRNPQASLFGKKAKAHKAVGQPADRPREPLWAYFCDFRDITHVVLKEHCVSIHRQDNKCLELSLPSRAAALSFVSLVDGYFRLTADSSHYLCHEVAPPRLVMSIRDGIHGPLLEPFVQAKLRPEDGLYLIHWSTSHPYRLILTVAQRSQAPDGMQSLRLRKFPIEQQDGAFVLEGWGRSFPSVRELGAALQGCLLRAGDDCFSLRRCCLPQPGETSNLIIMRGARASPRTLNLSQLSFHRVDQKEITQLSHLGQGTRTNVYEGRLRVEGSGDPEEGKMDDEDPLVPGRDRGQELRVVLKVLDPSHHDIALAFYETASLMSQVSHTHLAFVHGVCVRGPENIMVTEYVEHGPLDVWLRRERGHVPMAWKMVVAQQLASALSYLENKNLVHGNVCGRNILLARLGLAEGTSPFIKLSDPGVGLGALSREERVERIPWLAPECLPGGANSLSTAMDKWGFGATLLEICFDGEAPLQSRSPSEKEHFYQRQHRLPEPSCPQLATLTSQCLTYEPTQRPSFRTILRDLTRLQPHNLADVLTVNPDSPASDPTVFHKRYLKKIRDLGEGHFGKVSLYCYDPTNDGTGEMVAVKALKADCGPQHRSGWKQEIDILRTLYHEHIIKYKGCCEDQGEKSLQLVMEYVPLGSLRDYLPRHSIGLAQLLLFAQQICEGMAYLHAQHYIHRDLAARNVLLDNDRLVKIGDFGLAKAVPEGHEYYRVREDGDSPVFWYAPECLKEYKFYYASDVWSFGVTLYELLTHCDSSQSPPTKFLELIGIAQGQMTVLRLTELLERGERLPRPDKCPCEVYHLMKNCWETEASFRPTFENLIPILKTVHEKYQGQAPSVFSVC
Source text: as §1, §2

PDGFRa = molecular target: T3, PDGFRa (Homo sapiens, UniProt P16234); assay: KINOMEscan competition binding (DiscoveRX); details: lower value means stronger binding
T3 construct: purchased Carna Biosciences
T3 sequence (P16234 24-1089): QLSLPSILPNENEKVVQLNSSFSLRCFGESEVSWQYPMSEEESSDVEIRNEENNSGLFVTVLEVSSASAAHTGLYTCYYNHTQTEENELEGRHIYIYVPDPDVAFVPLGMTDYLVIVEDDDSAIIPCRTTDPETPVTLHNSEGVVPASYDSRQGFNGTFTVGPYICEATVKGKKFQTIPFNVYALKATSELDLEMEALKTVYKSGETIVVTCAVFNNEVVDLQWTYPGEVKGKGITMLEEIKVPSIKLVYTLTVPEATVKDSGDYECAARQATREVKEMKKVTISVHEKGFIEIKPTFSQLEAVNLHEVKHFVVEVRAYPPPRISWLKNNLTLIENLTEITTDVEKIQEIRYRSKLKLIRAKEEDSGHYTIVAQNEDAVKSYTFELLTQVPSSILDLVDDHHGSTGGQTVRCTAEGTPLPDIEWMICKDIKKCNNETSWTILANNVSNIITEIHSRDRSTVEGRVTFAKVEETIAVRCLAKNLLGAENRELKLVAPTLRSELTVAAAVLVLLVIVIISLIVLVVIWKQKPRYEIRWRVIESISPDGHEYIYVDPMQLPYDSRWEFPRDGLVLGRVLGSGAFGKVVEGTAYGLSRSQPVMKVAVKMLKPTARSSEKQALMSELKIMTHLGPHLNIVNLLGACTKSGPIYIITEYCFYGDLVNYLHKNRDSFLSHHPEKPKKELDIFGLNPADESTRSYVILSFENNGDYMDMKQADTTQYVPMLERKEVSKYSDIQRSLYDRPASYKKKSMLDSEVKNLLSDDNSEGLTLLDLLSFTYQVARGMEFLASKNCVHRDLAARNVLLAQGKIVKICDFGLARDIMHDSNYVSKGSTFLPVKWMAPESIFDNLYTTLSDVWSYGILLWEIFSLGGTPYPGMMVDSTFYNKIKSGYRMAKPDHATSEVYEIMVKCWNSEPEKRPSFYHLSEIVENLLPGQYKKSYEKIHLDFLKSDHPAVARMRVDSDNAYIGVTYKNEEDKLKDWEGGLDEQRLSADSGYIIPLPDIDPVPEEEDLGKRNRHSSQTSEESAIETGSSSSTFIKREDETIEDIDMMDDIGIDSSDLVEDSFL
Source text: as §1, §2

ABL1 (T315I) = molecular target: T4, ABL1 (T315I) (Homo sapiens, UniProt P00519, T315I); assay: KINOMEscan competition binding (DiscoveRX); details: lower value means stronger binding
T4 construct: purchased DiscoveRX (contract KINOMEscan service)
Source text: as §1, §2

BRAF = molecular target: T5, BRAF (Homo sapiens, UniProt P15056); assay: KINOMEscan competition binding (DiscoveRX); details: lower value means stronger binding
T5 construct: purchased DiscoveRX (contract KINOMEscan service)
T5 sequence (P15056 whole entry): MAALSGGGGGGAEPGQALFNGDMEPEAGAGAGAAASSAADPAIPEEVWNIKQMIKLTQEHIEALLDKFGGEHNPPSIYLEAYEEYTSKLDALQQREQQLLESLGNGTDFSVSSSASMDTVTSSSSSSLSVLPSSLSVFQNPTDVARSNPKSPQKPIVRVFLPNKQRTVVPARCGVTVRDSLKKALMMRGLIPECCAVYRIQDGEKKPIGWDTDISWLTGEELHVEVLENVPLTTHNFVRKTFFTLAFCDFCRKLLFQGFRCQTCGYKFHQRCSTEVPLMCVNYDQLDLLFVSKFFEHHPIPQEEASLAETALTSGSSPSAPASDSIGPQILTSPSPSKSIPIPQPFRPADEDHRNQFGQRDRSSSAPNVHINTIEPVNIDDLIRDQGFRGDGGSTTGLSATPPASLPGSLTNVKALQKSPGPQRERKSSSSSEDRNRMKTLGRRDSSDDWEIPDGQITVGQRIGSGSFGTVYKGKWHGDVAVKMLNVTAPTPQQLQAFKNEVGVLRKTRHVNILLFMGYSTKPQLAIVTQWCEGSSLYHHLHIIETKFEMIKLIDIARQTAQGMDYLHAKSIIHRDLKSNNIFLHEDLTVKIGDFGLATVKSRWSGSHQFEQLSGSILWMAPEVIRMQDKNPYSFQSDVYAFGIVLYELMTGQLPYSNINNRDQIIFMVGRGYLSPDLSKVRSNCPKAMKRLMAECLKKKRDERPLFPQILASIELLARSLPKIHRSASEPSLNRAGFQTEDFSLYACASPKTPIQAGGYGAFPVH
Source text: as §1, §2

[2] = test system: six kinase enzymes: ABL, BRAF, PDGFRa, RSK2, Src, TYK2; assay: Effect of kinase inhibitor on binding of compound 1 to kinase enzymes (fluorescence intensity)
Protocol: In this experiment, a buffer (100 mM HEPES buffer, pH 7.4) was used as the solvent, and a kinase commercially available from Carna Biosciences was used as the kinase enzyme. Here, each kinase enzyme was stored at −80° C. together with a solvent (50 mM Tris-HCl, 150 mM NaCl, 0.1% CHAPS, 1 mM DTT, and 10% Glycerol, pH 7.5) kindly provided by the manufacturer. […] A 96-well fluorescence assay plate (commercially available from SPL Life Science) was used as a plate used upon measurement of fluorescence, and a VCITOR 3 multilabel counter (commercially available from Perkin Elmer-Wellesley) was used as a measuring machine. A 355 nm-thick filter was used to produce excitation wavelengths of the measuring machine, and a 535 nm-thick filter was used to produce emission wavelengths of the measuring machine. […]
More particularly, an effect of the inhibitor on a total of the six kinase enzymes was determined, and the six kinase enzymes are as follows: (A) ABL, (B) BRAF, (C) PDGFRa, (D) RSK2, (E) Src, and (F) TYK2. […]
In this case, compound 1 (100 μM), ATP (1 mM), Mg (1 mM), and a kinase enzyme (0.2 μg/ml) were stirred for 24 hours (at 37° C.), and an inhibitor (100 μM) was then treated. […] Here, a left bar of each of A to F represents a fluorescence intensity before treatment of the inhibitor, and a right bar of each of A to F represents a fluorescence intensity after treatment of the inhibitor.

## CN(C)c1ccc2cc(C=O)c(O)cc2c1 [compound 1, 6-(dimethylamino)-3-hydroxyl-2-naphthaldehyde]
CT-26 cancer cells
  emission wavelength of fluorescence in cells: around 550 nm
[1]
  fluorescence image in cancer cells: bright fluorescence image
RSK2
  KINOMEscan percentile value: low percentile value
96 kinase enzymes
  number of kinase enzymes bound, of a total of 96: at least 50
TYK2
  KINOMEscan percentile value: low percentile value
PDGFRa
  KINOMEscan percentile value: low percentile value
ABL1 (T315I)
  KINOMEscan percentile value: low percentile value
BRAF
  KINOMEscan percentile value: low percentile value
[2]; 24 hours 37° C. with kinase, Mg, ATP, then inhibitor 100 μM for another 24 hours
  fluorescence intensity after later treatment of inhibitor: decreased
[2]; compound 1 100 μM, kinase 0.2 μg/ml, Mg 1 mM, ATP 1 mM, Gleevec 100 μM together
  fluorescence intensity with inhibitor included: did not selectively bind to the kinase enzymes to cause a sufficient increase in fluorescence intensity
